US20060135569A1, “Use of benzisoselenazolone compounds against ischemic myocardial damage” (priority 2002, published 2006)
Marks after values point to notes of the source that are not given here.

Key:
[1] = system: KM mice; assay: Acute toxicity study in mice; type: in vivo; settings: 5 g/kg; 10 mice per group, 7 days observation
Method: Acute toxicity studies were performed with IMM-004 and IMM-127 (synthesized by ourselves). The compound was provided as powder, which was milled and suspended in 0.5% carboxymethylcellulose sodium (CMC—Na) before use.
Male KM mice weighting 19±2 g were housed for an adaptation before use. Mice were randomly divided into groups, and each group consists of 10 animals. Mice were all fasted for 14 hrs before the administration of the tested compounds. Activity of mice in high dose group was reduced 30 min after the administration. 24 h after the administration, mice in each group were restored to normal. Mice were observed daily for a period of 7 days after the administration.

[2] = system: TA98; assay: Ames test, strain TA98; type: cell-based
Method: (§1) To assess the mutagenic effects of 5 compounds (IMM-004; IMM-065; IMM-127; IMM-128; IMM-313), the Ames test was performed in 4 strains (TA97; TA98; TA100; TA102). The experiment was conducted with compounds at 4 concentration levels (0.5, 5, 50 and 500 μg/dish). […]

[3] = system: TA97; assay: Ames test, strain TA97; type: cell-based
Method: as §1

[4] = system: arrhythmia induced by ischemia/reperfusion insults in anesthetized rats; assay: Ischemia/reperfusion arrhythmia in anesthetized rats, oral administration; type: in vivo, rat
Method: IMM-004 and IMM-127 were dissolved in the solution of ethanol and PEG (ethanol: PEG (v/v)=1:9). Rats were orally administrated the compounds at volume of 10 ml/Kg. The left anterior descending coronary artery was ligated in rats for 15 min at 60 min after the administration, and then the reprefusion was achieved.
(§2) Arrhythmic potency induced by myocardial insults was used to assess the potential protective effect of the compounds.

[5] = system: TA102; assay: Ames test, strain TA102; type: cell-based
Method: as §1

[6] = system: TA100; assay: Ames test, strain TA100; type: cell-based
Method: as §1

[7] = system: TA97; TA98; TA100; TA102; assay: Ames (mutagenesis) test, overall result in 4 strains; type: cell-based; settings: 0.5, 5, 50 and 500 μg/dish
Method: as §1

[8] = system: isolated rat hearts subjected to ischemia-reperfusion (I/R); assay: Isolated heart subjected to ischemia/reperfusion injury (arrhythmia); settings: 10^−6 M; isolated heart ischemia/reperfusion
Summary of the method: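 Rat hearts perfused in vitro and subjected to ischemia-reperfusion after drug exposure. Recorded endpoints: duration of ventricular arrhythmia and incidence of ventricular extrasystole and VT/VF.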

[9] = system: arrhythmia caused by ischemia/reperfusion insults in anaesthetic rats; assay: Ischemia/reperfusion arrhythmia in anaesthetic rats, intravenous injection; type: in vivo, rat; settings: for Occurrence time / VE Duration time / VE Incidence (%) / VF Duration time / VF Incidence (%) / VT Duration time / VT Incidence (%): intravenously injected per table title
Excerpt: (1) Protective Effects of the Tested Compounds on Myocardial Insults in Rats after Intravenously Injection
as §2

[10] = 3 mg/Kg intravenous (femoral vein), rats

`O=c1c2cc(F)ccc2[se]n1-c1ccccn1` [IMM-127, 5-fluoro-2-(2-pyridyl)-1,2-benz-isoselenazol-3(2H)-one] was tested, and the Lethal cases [1] was 7, the “TA98 +S9” value ([2]; 0.5 μg/dish) was 73.67 ± 4.63 and the “TA98 −S9” value ([2]; 0.5 μg/dish) was 93.50 ± 10.50. The “TA98 +S9” value ([2]; 5 μg/dish) was 53.00 ± 5.72, the “TA98 −S9” value ([2]; 5 μg/dish) was 85.00 ± 5.00 and the “TA98 +S9” value ([2]; 50 μg/dish) was 42.33 ± 7.41. The “TA98 −S9” value ([2]; 50 μg/dish) was 89.00 ± 10.61, the “TA98 +S9” value ([2]; 500 μg/dish) was 42.67 ± 5.31 and the “TA98 −S9” value ([2]; 500 μg/dish) was 96.00 ± 4.90. For the same molecule, the “TA97 +S9” value ([3]; 0.5 μg/dish) was 60.67 ± 3.86, the “TA97 −S9” value ([3]; 0.5 μg/dish) was 60.00 ± 8.16 and the “TA97 +S9” value ([3]; 5 μg/dish) was 59.67 ± 8.18. The “TA97 −S9” value ([3]; 5 μg/dish) was 56.67 ± 13.27, the “TA97 +S9” value ([3]; 50 μg/dish) was 68.50 ± 2.50 and the “TA97 −S9” value ([3]; 50 μg/dish) was 60.33 ± 3.77. For the same molecule, the “TA97 +S9” value ([3]; 500 μg/dish) was 48.00 ± 2.16, the “TA97 −S9” value ([3]; 500 μg/dish) was 57.33 ± 6.94 and the “protective effect: incidence/duration of VT, VF, duration of ventricular arrhythmic” value ([4]; 10 mg/Kg orally, rats) was “significantly reduced”. The “Occurrence time” value ([4]; 10 mg/Kg p.o.) was 15.5 ± 21.5 s, the “VE Duration time” value ([4]; 10 mg/Kg p.o.) was 2.5 ± 6.4 s and the “VE Incidence (%)” value ([4]; 10 mg/Kg p.o.) was 100%. For the same molecule, the “VF Duration time” value ([4]; 10 mg/Kg p.o.) was 6.6 ± 7.2 s, the “VF Incidence (%)” value ([4]; 10 mg/Kg p.o.) was 22.2% and the “VT Duration time” value ([4]; 10 mg/Kg p.o.) was 32.1 ± 26.1 s. The “VT Incidence (%)” value ([4]; 10 mg/Kg p.o.) was 66.7%, the “protective effect: incidence/duration of VT, VF, duration of ventricular arrhythmic” value ([4]; 30 mg/Kg orally, rats) was “all reduced” and the “Occurrence time” value ([4]; 30 mg/Kg p.o.) was 9.6 ± 9.2 s. For the same molecule, the “VE Duration time” value ([4]; 30 mg/Kg p.o.) was 0.2 ± 0.5 s, the “VE Incidence (%)” value ([4]; 30 mg/Kg p.o.) was 100% and the “VF Duration time” value ([4]; 30 mg/Kg p.o.) was 3.2 ± 5.5 s. For the same molecule, the “VF Incidence (%)” value ([4]; 30 mg/Kg p.o.) was 11.1* %, the “VT Duration time” value ([4]; 30 mg/Kg p.o.) was 18.0 ± 11.4 s and the “VT Incidence (%)” value ([4]; 30 mg/Kg p.o.) was 66.7%. For the same molecule, the “Occurrence time” value ([4]; 100 mg/Kg p.o.) was 9.0 ± 19.7 s, the “VE Duration time” value ([4]; 100 mg/Kg p.o.) was 2.2 ± 63 s and the “VE Incidence (%)” value ([4]; 100 mg/Kg p.o.) was 88.9%. The “VF Duration time” value ([4]; 100 mg/Kg p.o.) was 5.1 ± 7.8 s, the “VF Incidence (%)” value ([4]; 100 mg/Kg p.o.) was 22.2% and the “VT Duration time” value ([4]; 100 mg/Kg p.o.) was 31.1 ± 21.3 s. For the same molecule, the “VT Incidence (%)” value ([4]; 100 mg/Kg p.o.) was 44.4** %, the “protective effect: incidence/duration of VT, duration of ventricular arrhythmic” value ([4]; 100 mg/kg orally, rats) was “reduced” and the “TA102 +S9” value ([5]; 0.5 μg/dish) was 205.33 ± 17.98. The “TA102 −S9” value ([5]; 0.5 μg/dish) was 199.67 ± 17.13, the “TA102 +S9” value ([5]; 5 μg/dish) was 216.00 ± 21.42 and the “TA102 −S9” value ([5]; 5 μg/dish) was 224.67 ± 16.34. For the same molecule, the “TA102 +S9” value ([5]; 50 μg/dish) was 250.67 ± 15.43, the “TA102 −S9” value ([5]; 50 μg/dish) was 195.33 ± 35.22 and the “TA102 +S9” value ([5]; 500 μg/dish) was 233.33 ± 16.11. For the same molecule, the “TA102 −S9” value ([5]; 500 μg/dish) was 143.67 ± 19.01, the “TA100 +S9” value ([6]; 0.5 μg/dish) was 95.00 ± 10.23 and the “TA100 −S9” value ([6]; 0.5 μg/dish) was 83.00 ± 14.14. The “TA100 +S9” value ([6]; 5 μg/dish) was 102.67 ± 21.06, the “TA100 −S9” value ([6]; 5 μg/dish) was 62.00 ± 10.80 and the “TA100 +S9” value ([6]; 50 μg/dish) was 100.00 ± 6.16. For the same molecule, the “TA100 −S9” value ([6]; 50 μg/dish) was 67.67 ± 22.05, the “TA100 +S9” value ([6]; 500 μg/dish) was 100.67 ± 4.49 and the “TA100 −S9” value ([6]; 500 μg/dish) was 72.33 ± 23.67. The “mutagenic effect (Ames test)” value [7] was “No evidence for a mutagenic effect”, the “AAT: arrhythmic occurrence time, Time” value [8] was 19.72 ± 4.42 min and the “VF (ventricular fibrillation) Incidence rate (%)” value [8] was 38%. For the same molecule, the “VPS (ventricular premature beats) Incidence rate (%)” value [8] was 50%, the “VT (ventricular tachycardia) Incidence rate (%)” value [8] was 62.5% and the “incidence and duration of VT, VF, VE / ventricular arrhythmic” value [9, 10] was “all reduced”. The “latency of ventricular arrhythmic” value [9, 10] was “significantly prolonged”, the “Occurrence time” value ([9]; 10 mg/Kg) was 15.5 ± 21.5 s and the “VE Duration time” value ([9]; 10 mg/Kg) was 2.5 ± 6.4 s. The “VE Incidence (%)” value ([9]; 10 mg/Kg) was 100%, the “VF Duration time” value ([9]; 10 mg/Kg) was 6.6 ± 7.2 s and the “VF Incidence (%)” value ([9]; 10 mg/Kg) was 22.2%. The “VT Duration time” value ([9]; 10 mg/Kg) was 32.1 ± 26.1 s, the “VT Incidence (%)” value ([9]; 10 mg/Kg) was 66.7% and the “Occurrence time” value ([9]; 30 mg/Kg) was 9.6 ± 9.2 s. The “VE Duration time” value ([9]; 30 mg/Kg) was 0.2 ± 0.5 s, the “VE Incidence (%)” value ([9]; 30 mg/Kg) was 100% and the “VF Duration time” value ([9]; 30 mg/Kg) was 3.2 ± 5.5 s. For the same molecule, the “VF Incidence (%)” value ([9]; 30 mg/Kg) was 11.1* %, the “VT Duration time” value ([9]; 30 mg/Kg) was 18.0 ± 11.4 s and the “VT Incidence (%)” value ([9]; 30 mg/Kg) was 66.7%. The “Occurrence time” value ([9]; 100 mg/Kg) was 9.0 ± 19.7 s, the “VE Duration time” value ([9]; 100 mg/Kg) was 2.2 ± 63 s and the “VE Incidence (%)” value ([9]; 100 mg/Kg) was 88.9%. For the same molecule, the “VF Duration time” value ([9]; 100 mg/Kg) was 5.1 ± 7.8 s, the “VF Incidence (%)” value ([9]; 100 mg/Kg) was 22.2% and the “VT Duration time” value ([9]; 100 mg/Kg) was 31.1 ± 21.3 s. The “VT Incidence (%)” value ([9]; 100 mg/Kg) was 44.4** %.
